Source: paper PMC2199082 (The Journal of Experimental Medicine, 1997)
No end group written: not given here.

Assays:
murine calvaria = assay: Calvarial bone resorption assay; assay type: cell-based, mouse; details: for osteolytic activity of peptides in the calvarial assay: graded concentrations, three separate experiments
[1] = test system: human osteoblast-like cell line MG63; assay: Osteoblast proliferation; assay type: cell-based; details: subconfluent MG63, 24 h, DMEM 2% FCS, [3H]thymidine last 6 h

## 1–58: synthetic Mt cpn10 peptide, residues 1–58 (MAKVNIKPLEDKILVQANEAETTTASGLVIPDTAKEKPQEGTVVAVGPGRWDEDGEKR; also: dimer; UniProt P9WPE5 1-58, looked up, fragment)
Murine calvaria
  osteolytic activity of peptides in the calvarial assay: inactive

## 46–99: synthetic Mt cpn10 peptide, residues 46–99 (VGPGRWDEDGEKRIPLDVAEGDTVIYSKYGGTEIKYNGEEYLILSARDVLAVVS; UniProt P9WPE5 46-99, looked up, fragment)
Murine calvaria
  osteolytic activity of peptides in the calvarial assay: inactive

## 51–99: synthetic Mt cpn10 peptide, residues 51–99 (WDEDGEKRIPLDVAEGDTVIYSKYGGTEIKYNGEEYLILSARDVLAVVS; UniProt P9WPE5 51-99, looked up, fragment)
Murine calvaria
  osteolytic activity of peptides in the calvarial assay: inactive

## 54–99: synthetic Mt cpn10 peptide, residues 54–99 (DGEKRIPLDVAEGDTVIYSKYGGTEIKYNGEEYLILSARDVLAVVS; UniProt P9WPE5 54-99, looked up, fragment)
Murine calvaria
  osteolytic activity of peptides in the calvarial assay: inactive

## 59–99: synthetic Mt cpn10 peptide, residues 59–99 (IPLDVAEGDTVIYSKYGGTEIKYNGEEYLILSARDVLAVVS; UniProt P9WPE5 59-99, looked up, fragment)
Murine calvaria
  osteolytic activity of peptides in the calvarial assay: inactive

## 65–99: synthetic Mt cpn10 peptide, residues 65–99 (EGDTVIYSKYGGTEIKYNGEEYLILSARDVLAVVS; UniProt P9WPE5 65-99, looked up, fragment)
Murine calvaria
  osteolytic activity of peptides in the calvarial assay: reproducible osteolytic activity

## GGIVLTGSAAA [GroES residues 23–33]
Murine calvaria
  osteolytic activity of peptides in the calvarial assay: osteolytic activity

## TTTASGLVIPDTAKE [21–35]
Murine calvaria
  osteolytic activity of peptides in the calvarial assay: osteolytic activity

## calcitonin (CGNLSTCMLGTYTQDFNKFHTFPQTAIGVGAP; ends and bridges not checked; cysteine pairing not given here; UniProt P01258 85-116, looked up) [reference compound]
Murine calvaria; calcitonin at 10 ng/ml, results not shown
  effect on r-Mt cpn10-induced bone resorption: blocked

## lipoarabinomannan [Mt LAM, reference compound]
Murine calvaria; added at a concentration of 1 μg/ml
  osteolytic activity: no osteolytic activity

## polymyxin B [reference compound]
Murine calvaria
  effect of addition on bone resorbing activity of r-Mt cpn10: no effect
  effect of addition on bone resorbing activity of the Mt sonicate: no effect
  effect on osteolytic activity of peptides 26–99 and 65–99: no inhibitory effects

B1: r-Mt cpn10: recombinant Mycobacterium tuberculosis chaperonin 10 expressed in Escherichia coli, purified by reversed-phase HPLC to >97% purity (protein, UniProt P9WPE5 2-100, looked up)
Co-chaperonin GroES: AKVNIKPLEDKILVQANEAETTTASGLVIPDTAKEKPQEGTVVAVGPGRWDEDGEKRIPLDVAEGDTVIYSKYGGTEIKYNGEEYLILSARDVLAVVSK
modifications: recombinant, expressed in E. coli
Murine calvaria
  concentration at which osteolytic activity (calcium release) was noted: 1 ng/mL
  concentration at which osteolytic activity was noted, molar equivalent: 100 pmol
  stimulation of bone resorption, measured as calcium release into the tissue culture medium: dose-dependent stimulation of calcium release
[1]
  concentrations causing significant inhibition of cell proliferation: ≥ 1 nM
MG63 cells
  cytotoxicity (lactate dehydrogenase release): not due to cytotoxicity
